Where a name gives a salt, the structure may show the parent alone.
| SMILES | melting point |
| --- | --- |
| CC(=O)NCc1ccc(CN2CCN(c3nccs3)CC2)cc1 (as salt: hydrochloride) (hydrate or solvate) [Example 81, N-(4-((4-(Thiazol-2-yl)piperazin-1-yl)methyl)phenylmethyl)acetamide Hydrochloride 1/2 Hydrate] | 120 to 121 °C |
| CC(=O)NCc1ccc(CN2CCN(c3ncc(Br)s3)CC2)cc1 [Example 111, N-(4-((4-(5-Bromothiazol-2-yl)piperazin-1-yl)methyl)phenylmethyl)acetamide] | 160 to 163 °C |
| CC(=O)NC(C)c1ccc(CN2CCN(c3ncccn3)CC2)cc1 (stereo not drawn) [Example 69, N-(1-(4-((4-(Pyrimidin-2-yl)piperazin-1-yl)methyl)phenyl)ethyl)acetamide] | 124 to 126 °C |
| CC(=O)NCc1ccc(CN2CCN(c3ccc(F)cc3Br)CC2)cc1 (as salt: hydrochloride) | 231 to 235 °C |
| CC(=O)NCc1ccc(CN2CCN(c3ccncc3)CC2)cc1 [Example 84, N-(4-((4-(Pyridin-4-yl)piperazin-1-yl)methyl)phenylmethyl)acetamide] | 164 to 166 °C |
| CC(=O)NC(C)(C)c1ccc(C(C)N2CCN(c3ccccc3)CC2)cc1 (stereo not drawn) [Example 62, N-(1-(4-(1-(4-Phenylpiperazin-1-yl)ethyl)-phenyl)-1-methylethyl)acetamide] | 169 to 171 °C |
| CCC(CC)(NC(C)=O)c1ccc(CN2CCN(c3ccccc3)CC2)cc1 [Example 56, N-(1-Ethyl-1-(4-((4-phenylpiperazin-1-yl)methyl)phenyl)propyl)acetamide] | 139 to 140 °C |
| CC(=O)NCc1ccc(CN2CCN(c3ccc(Cl)cn3)CC2)cc1 [Example 86, N-(4-((4-(5-Chloropyridin-2-yl)piperazin-1-yl)methyl)phenylmethyl)acetamide] | 155 to 156 °C |
| CC(=O)NCc1ccc(CN2CCN(c3ccnc(Cl)n3)CC2)cc1 [Example 97, N-(4-((4-(2-Chloropyrimidin-4-yl)piperazin-1-yl)methyl)phenylmethyl)acetamide] | 132 to 133 °C |
| COc1ccccc1N1CCN(C(C)c2ccc(CNC(C)=O)cc2)CC1 (stereo not drawn) (as salt: hydrochloride) [Example 19, N-(4-(1-(4-(2-Methoxyphenyl)piperazin-1-yl)ethyl)phenylmethyl)acetamide Dihydrochloride] | 220 to 223 °C (dec.) |
| CC(=O)NC1(c2ccc(CN3CCN(c4ccc(F)cc4)CC3)cc2)CC1 [Example 65, N-(1-(4-((4-(4-Fluorophenyl)piperazin-1-yl)methyl)phenyl)cyclopropyl)acetamide] | 124 to 126 °C |
| CC(=O)NC1(c2ccc(CN3CCN(c4cccc(F)n4)CC3)cc2)CC1 [Example 117, N-(1-(4-((4-(6-Fluoropyridin-2-yl)piperazin-1-yl)methyl)phenyl)cyclopropyl)acetamide] | 135 to 136 °C |
| CC(=O)NC1(c2ccc(CN3CCN(c4ccccn4)CC3)cc2)CC1 [Example 118, N-(1-(4-((4-(Pyridin-2-yl)piperazin-1-yl)methyl)phenyl)cyclopropyl)acetamide] | 145 to 147 °C |
| CC(=O)NC(C)(C)c1ccc(CN2CCN(c3ccccc3)CC2)cc1 [Example 50, N-(1-Methyl-1-(4-((4-phenylpiperazin-1-yl)methyl)phenyl)ethyl)acetamide] | 110 to 111 °C |
| CC(=O)NCc1ccc(CN2CCN(c3nccc(Cl)n3)CC2)cc1 [Example 97, N-(4-((4-(4-chloropyrimidin-2-yl)piperazin-1-yl)methyl)phenylmethyl)acetamide] | 122 to 124 °C |
| CC(=O)NCc1ccc(CN2CCN(c3nc(Cl)cc(Cl)n3)CC2)cc1 [Example 80, N-(4-((4-(4,6-Dichloropyrimidin-2-yl)piperazin-1-yl)methyl)phenylmethyl)acetamide] | 139 to 140 °C |
| CC(=O)NCc1ccc(CN2CCN(c3nccc(N(C)C)n3)CC2)cc1 [Example 99, N-(4-((4-(4-(N,N-Dimethylamino)pyrimidin-2-yl)piperazin-1-yl)methyl)phenylmethyl)acetamide] | 152 to 155 °C |
| CC(=O)NC1(c2ccc(CN3CCN(c4ncccn4)CC3)cc2)CC1 [Example 71, N-(1-(4-((4-(Pyrimidin-2-yl)piperazin-1-yl)methyl)phenyl)cyclopropyl)acetamide] | 145 to 146 °C |
| COc1ccc(N2CCN(Cc3ccc(CNC(C)=O)cc3)CC2)cc1 [Example 13, N-(4-((4-(4-Methoxyphenyl)piperazin-1-yl)methyl)phenylmethyl)acetamide] | 137 to 138 °C |
| COc1cc(OC)nc(N2CCN(Cc3ccc(C(C)(C)NC(C)=O)cc3)CC2)n1 [Example 96, N-(1-(4-((4-(4,6-Dimethoxypyrimidin-2-yl)piperazin-1-yl)methyl)phenyl)-1-methylethyl)acetamide] | 199 to 202 °C |
| CCC(NC(C)=O)c1ccc(CN2CCN(c3ccc(F)cc3F)CC2)cc1 (stereo not drawn) [Example 55, N-(1-(4-((4-(2,4-Difluorophenyl)piperazin-1-yl)methyl)phenyl)propyl)acetamide] | 137 to 138 °C |

| SMILES | melting point |
| --- | --- |
| CCOc1cc(F)ccc1N1CCN(Cc2ccc(CNC(C)=O)cc2)CC1 [Example 41, N-(4-((4-(2-Ethoxy-4-fluorophenyl)-piperazin-1-yl)methyl)phenylmethyl)acetamide] | 108 to 109 °C |
| CC(=O)NCc1ccc(CN2CCN(c3ccc(F)cc3)CC2)cc1[N+](=O)[O-] [Example 23, N-(4-((4-(4-Fluorophenyl)piperazin-1-yl)methyl)-2-nitrophenylmethyl)acetamide] | 112 to 114 °C |
| CCC(=O)NCc1ccc(CN2CCN(c3ccccc3)CC2)cc1 [Example 4, N-(4-((4-Phenylpiperazin-1-yl)methyl)phenylmethyl)propionamide] | 140 to 141 °C |
| CC(=O)NCc1ccc(CN2CCN(c3cnccn3)CC2)cc1 [Example 87, N-(4-((4-(Pyrazin-2-yl)piperazin-1-yl)methyl)phenylmethyl)acetamide] | 118 to 119 °C |
| CCC(NC(C)=O)c1ccc(CN2CCN(c3ccc(F)cc3)CC2)cc1 (stereo not drawn) [Example 54, N-(1-(4-((4-(4-Fluorophenyl)piperazin-1-yl)methyl)phenyl)propyl)acetamide] | 113 to 114 °C |
| CC(=O)NC(C)(C)c1ccc(C(C)N2CCN(c3ccc(F)cc3)CC2)cc1 (stereo not drawn) [Example 60, N-(1-(4-(1-(4-(4-Fluorophenyl)piperazin-1-yl)ethyl)phenyl)-1-methylethyl)acetamide] | 156 to 157 °C |
| CC(=O)NCc1ccc(CN2CCN(c3nc(C)cc(C)n3)CC2)cc1 [Example 93, N-(4-((4-(4,6-Dimethylpyrimidin-2-yl)piperazin-1-yl)methyl)phenylmethyl)acetamide] | 127 to 128 °C |
| CC(=O)NCc1ccc(CN2CCN(c3cc(F)nc(F)n3)CC2)cc1 [Example 79, N-(4-((4-(2,6-Difluoropyrimidin-4-yl)piperazin-1-yl)methyl)phenylmethyl)acetamide] | 127 to 128 °C |
| CC(=O)NC(C)c1ccc(CN2CCN(c3ccccc3)CC2)cc1 (stereo not drawn) (as salt: hydrochloride) (hydrate or solvate) [Example 58, N-(1-(4-((4-Phenylpiperazin-1-yl)methyl)phenyl)ethyl)acetamide Dihydrochloride 1/4 Hydrate] | 196 to 200 °C |
| CC(=O)NCc1ccc(C(C)N2CCN(c3ccc(F)cc3)CC2)cc1 (stereo not drawn) [Example 59, N-(4-(1-(4-(4-Fluorophenyl)piperazin-1-yl)ethyl)phenylmethyl)acetamide] | 128 to 130 °C |
| CC(=O)NC(C)c1ccc(CN2CCN(c3ccc(F)cc3F)CC2)cc1 (stereo not drawn) [Example 49, N-(1-(4-((4-(2,4-Difluorophenyl)piperazin-1-yl)methyl)phenyl)ethyl)acetamide] | 109 to 111 °C |
| CC(=O)NCCc1ccc(CN2CCN(c3ccccc3)CC2)cc1 [Example 14, N-(2-(4-((4-Phenylpiperazin-1-yl)methyl)phenyl)ethyl)acetamide] | 117 to 118 °C |
| CC(=O)NCc1ccc(CN2CCN(c3ccc(F)cc3C)CC2)cc1 (as salt: hydrochloride) | 115 to 117 °C |
| CC(=O)NC(C)(C)c1ccc(CN2CCN(c3nccs3)CC2)cc1 [Example 94, N-(1-Methyl-1-(4-((4-(thiazol-2-yl)piperazin-1-yl)methyl)phenyl)ethyl)acetamide] | 118 to 120 °C |
| CC(=O)NC1(c2ccc(C(C)N3CCN(c4ccc(F)cc4)CC3)cc2)CC1 (stereo not drawn) [Example 67, N-(1-(4-(1-(4-(4-Fluorophenyl)piperazin-1-yl)ethyl)phenyl)cyclopropyl)acetamide] | 149 to 150 °C |
| CC(=O)NCc1ccc(CN2CCN(c3cc(Cl)nc(Cl)n3)CC2)cc1 [Example 89, N-(4-((4-(2,6-Dichloropyrimidin-4-yl)piperazin-1-yl)methyl)phenylmethyl)acetamide] | 165 to 166 °C |
| COc1ccnc(N2CCN(Cc3ccc(C(C)(C)NC(C)=O)cc3)CC2)n1 [Example 106, N-(1-(4-((4-(4-Methoxypyrimidin-2-yl)piperazin-1-yl)methyl)phenyl)-1-methylethyl)acetamide] | 160 to 162 °C |
| CC(=O)NCc1ccc(CN2CCN(c3ccc(F)cc3)CC2)cc1N [Example 24, N-(2-Amino-4-((4-(4-fluorophenyl)piperazin-1-yl)methyl)phenylmethyl)acetamide] | 163 to 164 °C |
| CC(=O)NCc1ccc(CN2CCN(c3ccc(Cl)cc3)CC2)cc1 [Example 11, N-(4-((4-(4-Chlorophenyl)piperazin-1-yl)methyl)phenylmethyl)acetamide] | 180.5 to 182 °C |
| CC(=O)NC(C)c1ccc(CN2CCN(c3ccccn3)CC2)cc1 (stereo not drawn) [Example 104, N-(1-(4-((4-(Pyridin-2-yl)piperazin-1-yl)methyl)phenyl)ethyl)acetamide] | 120 to 121 °C |
| CC(=O)NC(C)c1ccc(CN2CCN(c3cccc(F)n3)CC2)cc1 (stereo not drawn) [Example 102, N-(1-(4-((4-(6-Fluoropyridin-2-yl)piperazin-1-yl)methyl)phenyl)ethyl)acetamide] | 109 to 111 °C |

— patent publication US6455528B1, “Piperazine compounds and medicinal use thereof” (Mitsubishi Pharma Corporation, priority 1997, dated 2002)
